Assays:
[1] = refractive index (Na D-line) (dimensionless); xn = mol fraction of the nth substance listed; conditions: 100 kPa, Liquid, Standard Abbe refractometry, x2 = 0
[2] = xn = mol fraction of the nth substance listed; conditions: 100 kPa, Liquid, x2 = 0; for viscosity: Concentric cylinders viscometry; for mass density: Vibrating tube method
[3] = refractive index (Na D-line) (dimensionless); conditions: 100 kPa, Liquid, Standard Abbe refractometry
[4] = Liquid; for viscosity / mass density: 100 kPa; for viscosity: Concentric cylinders viscometry; for mass density: Vibrating tube method; for thermal conductivity: 101.33 kPa, transient hot wire

CN1CCCC1=O [N-methylpyrrolidone] + CCOS(=O)(=O)[O-].CCn1cc[n+](C)c1
Conditions | mass density, [2] [kg/m3] | refractive index, [1] | viscosity, [2] [mPa·s]
288.15 K | 1037.3 | 1.47166 | 1.99
293.15 K | 1032.84 | 1.46952 | 1.823
298.15 K | 1028.38 | 1.46736 | 1.679
303.15 K | 1023.93 | 1.4652 | 1.555
308.15 K | 1019.46 | 1.46306 | 1.444
313.15 K | 1015 | 1.46095 | 1.346
318.15 K | 1010.53 | 1.45891 | 1.259
323.15 K | 1006.06 | 1.4568 | 1.182
328.15 K | 1001.58 | 1.45473 | 1.11
333.15 K | 997.1 | 1.45267 | 1.043

CCOS(=O)(=O)[O-].CCn1cc[n+](C)c1 [1-ethyl-3-methylimidazolium ethyl sulfate]
Conditions | mass density, [4] [kg/m3] | refractive index, [3] | thermal conductivity, [4] [W/m/K] | viscosity, [4] [mPa·s]
288.15 K | 1243.07 | 1.48155 | – | 155.55
293.15 K | 1239.66 | 1.48018 | – | 117.88
298.15 K | 1236.27 | 1.47882 | – | 91.26
303.15 K | 1232.87 | 1.47746 | 0.1808 | 72.1
308.15 K | 1229.49 | 1.47611 | 0.18 | 57.98
313.15 K | 1226.13 | 1.47474 | 0.1795 | 47.26
318.15 K | 1222.79 | 1.47341 | 0.1787 | 39.25
323.15 K | 1219.46 | 1.47206 | 0.178 | 32.94
328.15 K | 1216.16 | 1.47075 | – | 27.96
333.15 K | 1212.86 | 1.46943 | – | 24.09

CCCCCCO [hexan-1-ol]
Conditions | mass density, [4] [kg/m3] | refractive index, [3] | viscosity, [4] [mPa·s]
288.15 K | 822.26 | 1.41986 | 6.297
293.15 K | 818.69 | 1.4179 | 5.324
298.15 K | 815.11 | 1.41591 | 4.53
303.15 K | 811.51 | 1.41386 | 3.889
308.15 K | 807.88 | 1.41182 | 3.355
313.15 K | 804.23 | 1.40981 | 2.912
318.15 K | 800.56 | 1.40779 | 2.541
323.15 K | 796.85 | 1.40574 | 2.251

CCCCCCO [hexan-1-ol] + CCOS(=O)(=O)[O-].CCn1cc[n+](C)c1
Conditions | mass density, [2] [kg/m3] | refractive index, [1] | viscosity, [2] [mPa·s]
288.15 K | 822.26 | 1.41986 | 6.297
293.15 K | 818.69 | 1.4179 | 5.324
298.15 K | 815.11 | 1.41591 | 4.53
303.15 K | 811.51 | 1.41386 | 3.889
308.15 K | 807.88 | 1.41182 | 3.355
313.15 K | 804.23 | 1.40981 | 2.912
318.15 K | 800.56 | 1.40779 | 2.541
323.15 K | 796.85 | 1.40574 | 2.251

From the NIST ThermoML archive (doi:10.1016/j.jct.2017.12.023)
